Where two headings read alike, the source gives them in different places.
Experiments:
NSD2 [1] = molecular target: T1, NSD2 (Homo sapiens, UniProt O96028); assay: Validation of mechanism of action: pretreatment rescue of LLC0424-mediated NSD2 degradation; type: cell-based; details: for effect of pretreatment on LLC0424-mediated NSD2 degradation: RPMI-8402 and SEM cells, pretreated 2 h, then 2 μM LLC0424 for 12 h; for effect of pretreatment on NSD2 protein reduction induced by LLC0424: RPMI-8402 cells, 2 μM LLC0424
T1 sequence (O96028 211-350 limits assumed): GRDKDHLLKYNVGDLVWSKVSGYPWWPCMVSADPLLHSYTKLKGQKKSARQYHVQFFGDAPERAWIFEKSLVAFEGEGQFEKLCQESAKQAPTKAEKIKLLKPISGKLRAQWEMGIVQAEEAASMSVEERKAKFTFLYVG

[2] = molecular target: T2, NSD2 (both long and short isoforms) (Homo sapiens, UniProt O96028); assay: NSD2 degradation by immunoblotting in ALL cell lines RPMI-8402 and SEM (NSD2 E1099K); type: cell-based; details: RPMI-8402 and SEM cells; 0.5 and 2 μM for 24 h or 2 μM for 12 and 24 h
T2 sequence (O96028 211-350 limits assumed): T1 sequence (O96028 211-350 limits assumed)
Experimental: As previous studies have shown that ALL cell lines with NSD2 gain-of-function mutation are more dependent on NSD2 regarding H3K36me2 level and cell proliferation,[7],[8] we further characterized LLC0424 in ALL cell lines with NSD2 E1099K gain-of-function mutation (RPMI-8402 and SEM). We first treated these cells with LLC0424 with different concentrations for 24 h. […] In addition, we compared the degradation efficiency of LLC0424 with the two previously published NSD2 degraders 6 and 7 at different concentrations and time points.
After treatment, the cultured cells were collected and rinsed with phosphate-buffered saline (PBS) in room temperature. The cells were treated with RIPA buffers (ThermoFisher Scientific) supplemented with Halt Protease and Phosphatase Inhibitor Cocktail (ThermoFisher Scientific). After sonication and centrifugation, the total amount of protein in the cell lysates was measured by Pierce Bovine Serum Albumin Standard Pre-Diluted Set (ThermoFisher Scientific). After mixed with LDS-sample buffer (Invitrogen) supplemented with Sample Reducing Agent (Invitrogen) and heated in 70 °C for 10 min, equal amount of protein was loaded into NuPAGE 4–12%, Bis-Tris Protein Gel (ThermoFisher Scientific) or NuPAGE 3–8%, Tris-Acetate Protein Gel (ThermoFisher Scientific), and blotted with primary antibodies. After incubated with HRP-conjugated secondary antibodies, the membranes were developed with ECL Prime Western Blotting Detection Reagent (cytiva) and imaged on Odyssey Fc Imager (LiCOR Biosciences).

NSD2 [3] = molecular target: T3, NSD2 (Homo sapiens, UniProt O96028); assay: Compound screening: NSD2 degradation by immunoblotting in VCaP cells; details: 24 h; for Dmax at 2 µM: VCaP
T3 sequence (O96028 1-1365): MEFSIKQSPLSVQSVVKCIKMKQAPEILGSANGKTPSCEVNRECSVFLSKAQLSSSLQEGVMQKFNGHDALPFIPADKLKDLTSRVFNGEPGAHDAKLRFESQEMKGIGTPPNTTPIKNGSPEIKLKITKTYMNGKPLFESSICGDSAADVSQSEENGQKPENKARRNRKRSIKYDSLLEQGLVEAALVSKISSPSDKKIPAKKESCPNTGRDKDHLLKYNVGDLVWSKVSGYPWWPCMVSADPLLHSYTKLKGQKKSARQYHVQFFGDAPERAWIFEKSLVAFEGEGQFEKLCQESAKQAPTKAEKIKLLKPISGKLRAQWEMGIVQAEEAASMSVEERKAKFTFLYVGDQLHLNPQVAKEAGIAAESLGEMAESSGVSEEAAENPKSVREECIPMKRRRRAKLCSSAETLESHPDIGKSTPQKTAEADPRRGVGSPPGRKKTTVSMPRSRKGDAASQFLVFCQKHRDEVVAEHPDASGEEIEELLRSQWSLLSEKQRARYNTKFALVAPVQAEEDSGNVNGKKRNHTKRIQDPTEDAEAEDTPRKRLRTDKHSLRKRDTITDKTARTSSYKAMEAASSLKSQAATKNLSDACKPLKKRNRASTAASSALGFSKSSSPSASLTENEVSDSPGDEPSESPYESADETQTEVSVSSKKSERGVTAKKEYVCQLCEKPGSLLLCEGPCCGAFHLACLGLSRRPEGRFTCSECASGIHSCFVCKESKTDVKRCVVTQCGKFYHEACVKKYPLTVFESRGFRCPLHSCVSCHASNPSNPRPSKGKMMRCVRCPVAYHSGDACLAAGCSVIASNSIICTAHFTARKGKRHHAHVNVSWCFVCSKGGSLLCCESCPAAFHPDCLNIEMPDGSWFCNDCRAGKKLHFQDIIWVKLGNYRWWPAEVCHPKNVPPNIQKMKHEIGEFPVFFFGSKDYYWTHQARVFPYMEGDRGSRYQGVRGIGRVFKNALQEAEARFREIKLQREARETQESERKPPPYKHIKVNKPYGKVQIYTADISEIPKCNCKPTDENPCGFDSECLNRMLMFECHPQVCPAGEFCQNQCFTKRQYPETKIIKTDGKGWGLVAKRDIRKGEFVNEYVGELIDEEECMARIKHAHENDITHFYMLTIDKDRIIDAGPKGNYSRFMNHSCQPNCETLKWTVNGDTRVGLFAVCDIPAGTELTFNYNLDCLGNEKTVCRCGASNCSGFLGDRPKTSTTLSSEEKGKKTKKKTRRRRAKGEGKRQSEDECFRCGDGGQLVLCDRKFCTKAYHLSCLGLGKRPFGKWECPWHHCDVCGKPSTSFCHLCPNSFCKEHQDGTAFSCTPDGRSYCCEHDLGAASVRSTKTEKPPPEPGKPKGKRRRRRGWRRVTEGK
Experimental: After treatment, the cultured cells were collected and rinsed with phosphate-buffered saline (PBS) in room temperature. The cells were treated with RIPA buffers (ThermoFisher Scientific) supplemented with Halt Protease and Phosphatase Inhibitor Cocktail (ThermoFisher Scientific). After sonication and centrifugation, the total amount of protein in the cell lysates was measured by Pierce Bovine Serum Albumin Standard Pre-Diluted Set (ThermoFisher Scientific). […] After incubated with HRP-conjugated secondary antibodies, the membranes were developed with ECL Prime Western Blotting Detection Reagent (cytiva) and imaged on Odyssey Fc Imager (LiCOR Biosciences).
Western blot was then performed as previously described to detect NSD2 degradation.

[4] = read-out: 2.0 μM Degradation % (VCaP)

Dmax at 2 µM (NSD2 [3]; [4])	Dmax at 2 µM (NSD2 [3]; read-out: % Degradation)	Structure (SMILES)	further results
74%	74%	O=C1CCC(N2C(=O)c3ccc(N4CCC(CNC(=O)c5ccc(NC(=O)c6ccc(CN(C(=O)c7ccc8c(c7)OCC(=O)N8)C7CC7)cc6)cc5)CC4)cc3C2=O)C(=O)N1 (stereo not drawn) [10n, N-Cyclopropyl-N-(4-((4-(((1-(2-(2,6-dioxopiperidin-3-yl)-1,3-dioxoisoindolin-5-yl)piperidin-4-yl)methyl)carbamoyl)phenyl)carbamoyl)benzyl)-3-oxo-3,4-dihydro-2H-benzo[b][1,4]oxazine-7-carboxamide]	
25%	25%	O=C1CCC(N2C(=O)c3cccc(NCCCCNC(=O)c4ccc(NC(=O)c5ccc(CN(C(=O)c6ccc7c(c6)OCC(=O)N7)C6CC6)cc5)cc4)c3C2=O)C(=O)N1 (stereo not drawn) [compound 10b, N-Cyclopropyl-N-(4-((4-((4-((2-(2,6-dioxopiperidin-3-yl)-1,3-dioxoisoindolin-4-yl)amino)butyl)carbamoyl)phenyl)carbamoyl)benzyl)-3-oxo-3,4-dihydro-2H-benzo[b][1,4]oxazine-7-carboxamide]	
17%	17%	O=C1CCC(N2C(=O)c3cccc(NCCNC(=O)c4ccc(NC(=O)c5ccc(CN(C(=O)c6ccc7c(c6)OCC(=O)N7)C6CC6)cc5)cc4)c3C2=O)C(=O)N1 (stereo not drawn) [compound 10a, N-Cyclopropyl-N-(4-((4-((2-((2-(2,6-dioxopiperidin-3-yl)-1,3-dioxoisoindolin-4-yl)amino)ethyl)carbamoyl)phenyl)carbamoyl)benzyl)-3-oxo-3,4-dihydro-2H-benzo[b][1,4]oxazine-7-carboxamide]	
92%	92%	O=C1CCC(N2C(=O)c3ccc(NCCCCNC(=O)c4ccc(NC(=O)c5ccc(CN(C(=O)c6ccc7c(c6)OCC(=O)N7)C6CC6)cc5)cc4)cc3C2=O)C(=O)N1 (stereo not drawn) [10g, N-Cyclopropyl-N-(4-((4-((4-((2-(2,6-dioxopiperidin-3-yl)-1,3-dioxoisoindolin-5-yl)amino)butyl)carbamoyl)phenyl)carbamoyl)benzyl)-3-oxo-3,4-dihydro-2H-benzo[b][1,4]oxazine-7-carboxamide]	
90%	90%	O=C1CCC(N2C(=O)c3ccc(NCCCCCCCCNC(=O)c4ccc(NC(=O)c5ccc(CN(C(=O)c6ccc7c(c6)OCC(=O)N7)C6CC6)cc5)cc4)cc3C2=O)C(=O)N1 (stereo not drawn) [10j, N-Cyclopropyl-N-(4-((4-((8-((2-(2,6-dioxopiperidin-3-yl)-1,3-dioxoisoindolin-5-yl)amino)octyl)carbamoyl)phenyl)carbamoyl)benzyl)-3-oxo-3,4-dihydro-2H-benzo[b][1,4]oxazine-7-carboxamide]	
70%	70%	O=C1CCC(N2C(=O)c3ccc(NCCNC(=O)c4ccc(NC(=O)c5ccc(CN(C(=O)c6ccc7c(c6)OCC(=O)N7)C6CC6)cc5)cc4)cc3C2=O)C(=O)N1 (stereo not drawn) [10e, N-cyclopropyl-N-(4-((4-((2-((2-(2,6-dioxopiperidin-3-yl)-1,3-dioxoisoindolin-5-yl)amino)ethyl)carbamoyl)phenyl)carbamoyl)benzyl)-3-oxo-3,4-dihydro-2H-benzo[b][1,4]oxazine-7-carboxamide]	
94%	94%	O=C1CCC(N2C(=O)c3ccc(NCCCNC(=O)c4ccc(NC(=O)c5ccc(CN(C(=O)c6ccc7c(c6)OCC(=O)N7)C6CC6)cc5)cc4)cc3C2=O)C(=O)N1 (stereo not drawn) [compound 10f, N-Cyclopropyl-N-(4-((4-((3-((2-(2,6-dioxopiperidin-3-yl)-1,3-dioxoisoindolin-5-yl)amino)propyl)carbamoyl)phenyl)carbamoyl)benzyl)-3-oxo-3,4-dihydro-2H-benzo[b][1,4]oxazine-7-carboxamide]	

Continued, molecule first:

Structure (SMILES)	Dmax at 2 µM (NSD2 [3]; [4])	Dmax at 2 µM (NSD2 [3]; read-out: % Degradation)	further results
Cc1ncsc1-c1ccc(CNC(=O)[C@@H]2C[C@@H](O)CN2C(=O)[C@H](C(C)C)N2Cc3ccccc3C2=O)cc1 [VL-285]			effect of pretreatment on LLC0424-mediated NSD2 degradation (NSD2 [1]): not
NS(=O)(=O)OC[C@@H]1C[C@@H](n2ccc3c(N[C@H]4CCc5ccccc54)ncnc32)C[C@@H]1O [MLN4924]			effect of pretreatment on NSD2 protein reduction induced by LLC0424 (NSD2 [1]): rescued the NSD2 protein reduction induced by LLC0424
CC(C)C[C@H](NC(=O)[C@H](Cc1ccccc1)NC(=O)c1cnccn1)B(O)O [bortezomib]			effect of pretreatment on NSD2 protein reduction induced by LLC0424 (NSD2 [1]): rescued the NSD2 protein reduction induced by LLC0424
O=C(CNc1cccc2c1C(=O)N(C1CCC(=O)NC1=O)C2=O)NCCCOc1ccc(NC(=O)c2ccc(CN(C(=O)c3ccc4c(c3)OCC(=O)N4)C3CC3)cc2)nc1 (stereo not drawn) [compound 6, reference compound]			NSD2 degradation, comparison of degraders [2]: much less active; % Degradation (NSD2 [3]; 2 μM, VCaP cells, immunoblotting): 11%
O=C1CCC(N2C(=O)c3ccccc3C2=O)C(=O)N1 (stereo not drawn) [thalidomide]			effect of pretreatment on LLC0424-mediated NSD2 degradation (NSD2 [1]): reversed the LLC0424-mediated NSD2 degradation
O=C1CCC(N2C(=O)c3ccc(N4CCN(C(=O)c5ccc(NC(=O)c6ccc(CN(C(=O)c7ccc8c(c7)OCC(=O)N8)C7CC7)cc6)cc5)CC4)cc3C2=O)C(=O)N1 (stereo not drawn) [10m, N-Cyclopropyl-N-(4-((4-(4-(2-(2,6-dioxopiperidin-3-yl)-1,3-dioxoisoindolin-5-yl)piperazine-1-carbonyl)phenyl)carbamoyl)benzyl)-3-oxo-3,4-dihydro-2H-benzo[b][1,4]oxazine-7-carboxamide]	41%	41%	
O=C1CCC(N2C(=O)c3ccc(N4CCCC(NC(=O)c5ccc(NC(=O)c6ccc(CN(C(=O)c7ccc8c(c7)OCC(=O)N8)C7CC7)cc6)cc5)C4)cc3C2=O)C(=O)N1 (stereo not drawn) [10q, N-Cyclopropyl-N-(4-((4-((1-(2-(2,6-dioxopiperidin-3-yl)-1,3-dioxoisoindolin-5-yl)piperidin-3-yl)carbamoyl)phenyl)carbamoyl)benzyl)-3-oxo-3,4-dihydro-2H-benzo[b][1,4]oxazine-7-carboxamide]	3%	3%	

Source: article PMC11094793, “Discovery of LLC0424 as a Potent and Selective in Vivo NSD2 PROTAC Degrader” (Journal of Medicinal Chemistry, 2024)
